In patent publication US20200247800A1, “SUBSTITUTED BICYCLIC HETEROCYCLIC COMPOUNDS AS NADPH OXIDASE INHIBITORS” (Glenmark Pharmaceuticals S.A., priority 2017, published 2020):

Molecular target: T1, human NOX4 (Homo sapiens, UniProt Q9NPH5)
T1 construct: expressed in transfected cells; membrane fraction used
T1 sequence (Q9NPH5 1-578): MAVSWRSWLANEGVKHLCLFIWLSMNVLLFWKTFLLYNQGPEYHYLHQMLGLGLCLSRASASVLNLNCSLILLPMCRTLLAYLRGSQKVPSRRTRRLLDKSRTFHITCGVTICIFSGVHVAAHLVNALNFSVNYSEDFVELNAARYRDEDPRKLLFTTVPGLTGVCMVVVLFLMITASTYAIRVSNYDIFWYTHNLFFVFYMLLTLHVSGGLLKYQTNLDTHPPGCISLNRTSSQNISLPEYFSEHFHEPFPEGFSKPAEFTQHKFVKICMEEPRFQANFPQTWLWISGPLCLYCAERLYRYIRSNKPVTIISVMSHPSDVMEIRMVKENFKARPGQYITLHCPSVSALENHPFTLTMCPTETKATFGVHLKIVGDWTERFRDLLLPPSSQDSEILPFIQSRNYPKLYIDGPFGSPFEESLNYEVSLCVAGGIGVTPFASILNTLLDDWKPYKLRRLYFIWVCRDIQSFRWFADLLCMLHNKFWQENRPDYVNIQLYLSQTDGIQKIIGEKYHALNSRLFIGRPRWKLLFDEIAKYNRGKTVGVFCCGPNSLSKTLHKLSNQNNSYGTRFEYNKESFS
T1 sequence (P13498 1-195 partner): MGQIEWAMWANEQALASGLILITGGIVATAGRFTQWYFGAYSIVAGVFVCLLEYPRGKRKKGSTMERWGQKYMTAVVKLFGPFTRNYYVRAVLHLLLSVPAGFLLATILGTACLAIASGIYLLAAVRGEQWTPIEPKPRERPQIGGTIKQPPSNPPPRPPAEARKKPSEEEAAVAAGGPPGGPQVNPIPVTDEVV
Assay: Cell free membrane based in vitro NOX4 assay: H2O2 production by membranes expressing human NOX4, measured with Amplex Red
Format: biochemical
Settings: for inhibition at 1 µM: 1.0 μM compound, read-out: Percentage inhibition at 1.0 μM; for IC50: class symbols; for inhibition at 10 µM: 10.0 μM compound, read-out: Percentage inhibition at 10.0 μM
In short: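 IC50 came from concentration-response curves fitted as % of the inhibitor-free maximum. H2O2 formation was monitored for 10 min via Amplex Red/HRP fluorescence (544/590 nm) after NADPH start. Membranes from a stable hNOX4/HEK line had 20 min exposure to inhibitor beforehand at pH 7.4.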

SMILES	inhibition at 1 µM [%]	IC50 [nM]	inhibition at 10 µM [%]
Cc1nn(C(C)C)c2[nH]c(-c3c(F)cccc3F)c(O)c(=O)c12 [Example 74, 6-(2,6-Difluorophenyl)-5-hydroxy-1-isopropyl-3-methyl-1H-pyrazolo[3,4-b]pyridin-4(7H)-one]	91.1	50 to 100	90.3
CC(C)c1c2c(=O)c(O)c(-c3ccccc3Cl)[nH]c2nn1C [Example 75, 6-(2-Chlorophenyl)-5-hydroxy-3-isopropyl-2-methyl-2H-pyrazolo[3,4-b]pyridin-4(7H)-one]	1.59	–	12.5
Cc1nn(Cc2ccccc2)c2[nH]c(-c3c(F)cccc3F)c(O)c(=O)c12 [Example 76, 1-Benzyl-6-(2,6-difluorophenyl)-5-hydroxy-3-methyl-1H-pyrazolo[3,4-b]pyridin-4(7H)-one]	95	< 50	93.5
NC(=O)c1nsc2c(=O)c(O)c(-c3ccccc3Cl)[nH]c12 [Example 78, 5-(2-Chlorophenyl)-6-hydroxy-7-oxo-4,7-dihydroisothiazolo[4,5-b]pyridine-3-carboxamide]	55.3	> 150	89.3
Cc1nn(C)c2c(=O)c(O)c(-c3ccccc3Cl)[nH]c12 [Example 83, 5-(2-Chlorophenyl)-6-hydroxy-1,3-dimethyl-1H-pyrazolo[4,3-b]pyridin-7(4H)-one]	74.4	> 150	99
Cc1nn(Cc2ccc(F)cc2)c2[nH]c(-c3c(F)cccc3F)c(O)c(=O)c12 [Example 84, 6-(2,6-Difluorophenyl)-1-(4-fluorobenzyl)-5-hydroxy-3-methyl-1H-pyrazolo[3,4-b]pyridin-4(7H)-one]	80.2	> 150	88.6
Cn1nc(C(F)F)c2c(=O)c(O)c(-c3ccccc3Cl)[nH]c21 [Example 85, 6-(2-Chlorophenyl)-3-(difluoromethyl)-5-hydroxy-1-methyl-1H-pyrazolo[3,4-b]pyridin-4(7H)-one]	72.5	> 150	88
Cn1nc(C(F)F)c2c(=O)c(O)c(-c3c(F)cccc3F)[nH]c21 [Example 86, 3-(Difluoromethyl)-6-(2,6-difluorophenyl)-5-hydroxy-1-methyl-1H-pyrazolo[3,4-b]pyridin-4(7H)-one]	74.5	> 150	89.8
Cc1nn(C2CC2)c2[nH]c(-c3c(F)cccc3F)c(O)c(=O)c12 [Example 87, 1-Cyclopropyl-6-(2,6-difluorophenyl)-5-hydroxy-3-methyl-1H-pyrazolo[3,4-b]pyridin-4(7H)-one]	78.2	100 to 150	88.5
Cc1nn(CCN2CCOCC2)c2[nH]c(-c3c(F)cccc3F)c(O)c(=O)c12 [Example 88, 6-(2,6-Difluorophenyl)-5-hydroxy-3-methyl-1-(2-morpholinoethyl)-1H-pyrazolo[3,4-b]pyridin-4(7H)-one]	100	50 to 100	100
CC(C)c1nn(C)c2[nH]c(-c3c(F)cccc3F)c(O)c(=O)c12 [Example 91, 6-(2,6-Difluorophenyl)-5-hydroxy-3-isopropyl-1-methyl-1H-pyrazolo[3,4-b]pyridin-4(7H)one]	98.3	50 to 100	87.1
Cc1ccc(F)c(-c2[nH]c3c(c(C)nn3C3CC3)c(=O)c2O)c1F [Example 93, 1-Cyclopropyl-6-(2,6-difluoro-3-methylphenyl)-5-hydroxy-3-methyl-1H-pyrazolo[3,4-b]pyridin-4(7H)-one]	69.1	> 150	79.6
Cc1nn(C2CC2)c2[nH]c(-c3c(F)cc(F)cc3F)c(O)c(=O)c12 [Example 94, 1-Cyclopropyl-5-hydroxy-3-methyl-6-(2,4,6-trifluorophenyl)-1H-pyrazolo[3,4-b]pyridin-4(7H)-one]	72.5	> 150	80
Cc1nn(C2CC2)c2[nH]c(-c3cccc(F)c3F)c(O)c(=O)c12 [Example 96, 1-Cyclopropyl-6-(2,3-difluorophenyl)-5-hydroxy-3-methyl-1H-pyrazolo[3,4-b]pyridin-4(7H)-one]	67.3	> 150	72.3
CCn1nc(C)c2c(=O)c(O)c(-c3c(F)cc(F)cc3F)[nH]c21 [Example 97, 1-Ethyl-5-hydroxy-3-methyl-6-(2,4,6-trifluorophenyl)-1H-pyrazolo[3,4-b]pyridin-4(7H)-one]	76.7	> 150	78.2
O=c1c(O)c(-c2c(F)cccc2F)[nH]c2[nH]nc(C(F)(F)F)c12 [Example 98, 6-(2,6-Difluorophenyl)-5-hydroxy-3-(trifluoromethyl)-1H-pyrazolo[3,4-b]pyridin-4(7H)-one]	86.4	50 to 100	93.4
CCn1nc(C(F)F)c2c(=O)c(O)c(-c3c(F)cccc3F)[nH]c21 [Example 99, 3-(Difluoromethyl)-6-(2,6-difluorophenyl)-1-ethyl-5-hydroxy-1H-pyrazolo[3,4-b]pyridin-4(7H)-one]	71.3	> 150	85.1

Next, values leading:

inhibition at 1 µM [%]	IC50 [nM]	inhibition at 10 µM [%]	SMILES
82.2	100 to 150	–	CCc1nn(C)c2[nH]c(-c3ccc(OC)cc3F)c(O)c(=O)c12 [Example 72, 3-Ethyl-6-(2-fluoro-4-methoxyphenyl)-5-hydroxy-1-methyl-1H-pyrazolo[3,4-b]pyridin-4(7H)-one]
79.8	50 to 100	73.1	CCc1nn(C)c2[nH]c(-c3ccc(OC)cc3Cl)c(O)c(=O)c12 [Example 73, 6-(2-Chloro-4-methoxyphenyl)-3-ethyl-5-hydroxy-1-methyl-1H-pyrazolo[3,4-b]pyridin-4(7H)-one]
88.9	100 to 150	72.1	COc1ccc(-c2[nH]c3c(c(C)nn3Cc3ccccc3)c(=O)c2O)c(F)c1 [Example 77, 1-Benzyl-6-(2-fluoro-4-methoxyphenyl)-5-hydroxy-3-methyl-1H-pyrazolo[3,4-b]pyridin-4(7H)-one]
78.4	100 to 150	81.6	CCCn1nc(C)c2c(=O)c(O)c(-c3c(F)cccc3F)[nH]c21 [Example 79, 6-(2,6-Difluorophenyl)-5-hydroxy-3-methyl-1-propyl-1H-pyrazolo[3,4-b]pyridin-4(7H)-one]
94	50 to 100	97.5	Cc1nn(CCN(C)C)c2[nH]c(-c3ccccc3Cl)c(O)c(=O)c12 [Example 80, 6-(2-Chlorophenyl)-1-(2-(dimethylamino)ethyl)-5-hydroxy-3-methyl-1H-pyrazolo[3,4-b]pyridin-4(7H)-one]
93.3	> 150	81.5	CCn1nc(C)c2c(=O)c(O)c(-c3cc(F)ccc3F)[nH]c21 [Example 81, 6-(2,5-Difluorophenyl)-1-ethyl-5-hydroxy-3-methyl-1H-pyrazolo[3,4-b]pyridin-4(7H)-one]
87.5	50 to 100	–	CCCn1nc(C)c2c(=O)c(O)c(-c3ccc(OC)cc3F)[nH]c21 [Example 82, 6-(2-Fluoro-4-methoxyphenyl)-5-hydroxy-3-methyl-1-propyl-1H-pyrazolo[3,4-b]pyridin-4(7H)-one]
100	50 to 100	100	Cc1nn(CCN(C)C)c2[nH]c(-c3c(F)cccc3F)c(O)c(=O)c12 [Example 89, 6-(2,6-Difluorophenyl)-1-(2-(dimethylamino)ethyl)-5-hydroxy-3-methyl-1H-pyrazolo[3,4-b]pyridin-4(7H)-one]
100	50 to 100	100	COCCn1nc(C)c2c(=O)c(O)c(-c3c(F)cccc3F)[nH]c21 [Example 90, 6-(2,6-Difluorophenyl)-5-hydroxy-1-(2-methoxyethyl)-3-methyl-1H-pyrazolo[3,4-b]pyridin-4(7H)-one]
75.6	100 to 150	76.5	COCCCn1nc(C)c2c(=O)c(O)c(-c3c(F)cccc3F)[nH]c21 [Example 92, 6-(2,6-Difluorophenyl)-5-hydroxy-1-(3-methoxypropyl)-3-methyl-1H-pyrazolo[3,4-b]pyridin-4(7H)-one]
71.1	> 150	62.6	CCn1nc(C)c2c(=O)c(O)c(-c3cccc(F)c3F)[nH]c21 [Example 95, 6-(2,3-Difluorophenyl)-1-ethyl-5-hydroxy-3-methyl-1H-pyrazolo[3,4-b]pyridin-4(7H)-one]
